This note sets out measurements from patent US20260364080A1, “PYRAZOLO-PYRIMIDINONE COMPOUNDS FOR USE IN METHODS OF INHIBITING WEE1 A KINASE” (Acrivon Therapeutics, Inc., priority 2023, published 2026).

Usually pEC50 stands for the negative decadic logarithm of the EC50, by convention in mol/L. Usually pIC50 stands for −log10 of the IC50, conventionally taken in molar units.

pEC50, pIC50: −log10 of the molar value. Where two headings read alike, the source gives them in different places.

The target of test [1] is T1, Wee1A kinase (CDK1 Tyr15 phosphorylation in ACHN renal cell carcinoma cells) (Homo sapiens, UniProt P30291).
T1 construct: pCDK1 Tyr15 immunofluorescence read-out
In words: High-content imaging of pCdk1 Y15, Wee1A kinase target engagement in ACHN cells. It counts as cell-based. The method, boiled down:
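ACHN cells exposed to compound for 4 h over 7–5,000 nM or 0.3–200 nM, then fixed and immunostained for pCDK1 Y15 with DAPI nuclear counterstain. The percentage of pCdk1 Y15 nucleus-positive cells relative to DMSO control was imaged per well; EC50 from dose-response curves.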

Another test has as its system ACHN cells. Put plainly: Cell Titer Glo viability assay, ACHN cells. It counts as cell-based. As to conditions: Homo sapiens, 144 h, absolute EC50. The method, boiled down: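 Cells grown in MEM with 10% FCS were seeded at 500 (A427), 400 (ACHN) or 250 (DAOY) per well and treated the next day with compound at 17 to 10 000 nM. Viability relative to untreated control was read at 144 h by CellTiter-Glo 2.0.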
(In general: Cellular ATP, detected with luciferase, serves as a proxy for viable cell number.)

The target of test [2] is T2, Myt1 kinase (CDK1 Thr14 phosphorylation in DAOY medulloblastoma cells) (Homo sapiens, UniProt Q99640).
T2 construct: pCDK1 Thr14 AlphaLISA read-out
T2 sequence (Q99640 1-499): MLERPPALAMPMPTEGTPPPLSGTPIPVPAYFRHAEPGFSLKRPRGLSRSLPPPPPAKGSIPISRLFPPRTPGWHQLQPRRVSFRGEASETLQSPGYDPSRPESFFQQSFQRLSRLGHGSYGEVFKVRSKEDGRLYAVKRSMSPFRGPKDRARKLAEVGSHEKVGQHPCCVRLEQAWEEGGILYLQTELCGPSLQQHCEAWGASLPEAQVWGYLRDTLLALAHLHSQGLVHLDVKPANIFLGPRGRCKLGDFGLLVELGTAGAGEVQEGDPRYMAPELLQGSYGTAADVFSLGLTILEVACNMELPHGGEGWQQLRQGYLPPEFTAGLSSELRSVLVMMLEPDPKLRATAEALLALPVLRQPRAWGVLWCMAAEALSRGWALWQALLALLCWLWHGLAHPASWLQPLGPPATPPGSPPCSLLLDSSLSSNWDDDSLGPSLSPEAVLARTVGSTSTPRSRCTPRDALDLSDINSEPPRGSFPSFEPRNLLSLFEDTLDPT
Put plainly: AlphaLISA assay, Myt1 kinase target engagement (phospho-CDK1 Thr14) in DAOY cells. It counts as cell-based. Here is the method: Each of an ACHN renal cell carcinoma cell line (ATCC) and a DAOY medulloblastoma cell line, and an A427 lung cancer line were cultured in Minimum Essential Medium Eagle supplemented with 10% fetal calf serum (Sigma), 1% Penicillin-Streptomycin and 10 mM HEPES buffer (HyClone). Cell cultures were kept in a humidified incubator at 37 °C and 5% CO2. Cells were routinely tested for Mycoplasma contamination.
For target engagement assessment of Myt1 kinase inhibition, quantification of Cdk1 phosphorylated on threonine 14 was detected using the AlphaLISA® SureFire® Ultra™ Human Phospho-CDK1 (Thr14) assay (Perkin Elmer). DAOY or ACHN cells were seeded into tissue culture treated 96-well plates (VWR) to a density of 10,000 or 20,000 cells per well respectively. 24 h post seeding cells were treated for 4 h with compounds at concentrations ranging from 7 to 5000 nM. Cells were washed with PBS and lysed in 50 μl AlphaLISA lysis buffer before freezing at −80 C. Ten ul of the lysate was transferred to 384 well plates and incubated with AlphaLISA donor and acceptor beads according to the manufacturer's instructions. Dose response curves and EC50 values were calculated and visualized using GraphPad Prism version 9. Target engagement for Myt1 kinase can also be measured using the same AlphaLISA assay in OVCAR3 cells, an ovarian cancer cell line. NIH:OVCAR-3 (OVCAR3) cells are cultured in RPMI-1640 medium supplemented with 0.01 mg/ml insulin, 20% FBS, 1% Penicillin-Streptomycin and 10 mM HEPES buffer. 14,000 cells per well are seeded into 96 well tissue culture plates in full medium. Twenty-four hours post seeding, cells are treated with compound for 4 hours at concentrations ranging from 0.017 nM to 1000 nM.
For orientation: In Alpha technology, singlet oxygen from a donor bead excites a nearby acceptor bead.

Test [3] deals with T3, recombinant human Wee1A kinase (Homo sapiens, UniProt P30291).
T3 construct: full length Wee1 kinase was expressed by baculovirus in insect cells; purchased Invitrogen PV3817; host or cells: insect cells (baculovirus)
In words: Wee1A kinase binding assay (LanthaScreen Eu time-resolved FRET). Summed up: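 Full-length, baculovirus-expressed GST-tagged Wee1A (5 nM) was mixed with 2 nM Eu-anti-GST antibody, 30 nM kinase tracer 178 and compound (1% DMSO). Buffer was 50 mM HEPES pH 7.5, 10 mM MgCl2, 1 mM EGTA, 0.01% Brij-35, incubated 60 min at room temperature. TR-FRET 665/615 nm emission ratios from duplicates were curve-fitted.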
In general terms: TR-FRET usually uses a lanthanide donor and a delayed reading to cut background.

Test [4] addresses T4, Myt1 kinase (recombinant PMYT-1) (Homo sapiens, UniProt Q99640).
T4 construct: full length PMYT-1 was expressed by baculovirus in insect cells; purchased Invitrogen A30984; host or cells: insect cells (baculovirus)
T4 sequence (Q99640 1-499): T2 sequence (Q99640 1-499)
Put plainly: Myt1 kinase binding assay (LanthaScreen Eu Kinase Binding Assay). Summed up:
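The binding affinity of compounds for Myt1 kinase was measured with a LanthaScreen Europium (Eu) Kinase Binding Assay, a time-resolved FRET format in which test compounds compete against a labeled kinase tracer, and the results were expressed as IC50 values describing compound binding to Myt1.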

The mark [5] stands for this setting: 4 h treatment, nuclear positivity for pCdk1 Y15 vs DMSO control, read-out: CDK1 Tyr15 Phosphorylation EC50.
[6] abbreviates: 4 h treatment, read-out: CDK1 Thr14 Phosphorylation EC50.
Setting [7] is: 30 nM tracer 178, 5 nM Wee1A kinase, 2 nM Eu-labeled antibody, 60 minutes at room temperature, read-out: Wee1A kinase Binding IC50.
Setting [8] is: 3 nM tracer 178, 2.5 nM PMYT-1, 1 nM Eu-labeled antibody, read-out: Myt1 kinase Binding IC50.

T1 sequence (P30291 whole entry): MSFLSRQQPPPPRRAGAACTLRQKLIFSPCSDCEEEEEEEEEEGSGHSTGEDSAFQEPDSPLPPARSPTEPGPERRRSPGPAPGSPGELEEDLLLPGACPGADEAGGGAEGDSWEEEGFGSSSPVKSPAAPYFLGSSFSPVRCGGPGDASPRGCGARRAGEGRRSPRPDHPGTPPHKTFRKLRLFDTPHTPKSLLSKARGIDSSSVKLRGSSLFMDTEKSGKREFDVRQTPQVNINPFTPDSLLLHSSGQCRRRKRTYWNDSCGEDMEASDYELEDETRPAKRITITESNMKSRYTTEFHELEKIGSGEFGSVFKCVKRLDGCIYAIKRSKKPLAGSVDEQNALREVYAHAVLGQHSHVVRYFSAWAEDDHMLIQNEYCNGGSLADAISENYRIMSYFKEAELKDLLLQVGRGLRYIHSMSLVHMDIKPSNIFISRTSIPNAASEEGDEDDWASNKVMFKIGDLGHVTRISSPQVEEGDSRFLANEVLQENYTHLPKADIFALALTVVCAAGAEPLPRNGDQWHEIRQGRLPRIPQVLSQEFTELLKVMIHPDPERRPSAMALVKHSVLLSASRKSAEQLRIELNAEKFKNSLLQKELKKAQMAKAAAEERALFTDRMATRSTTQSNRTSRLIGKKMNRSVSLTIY
T3 sequence (P30291 whole entry): as above

With `C=CCn1c(=O)c2cnc(Nc3ccc4c(cnn4C)c3)nc2n1-c1cccc(O[C@H]2CCNC2)n1` [Compound 100, 1-{6-[(S)-3-pyrrolidinyloxy]-2-pyridyl}-2-allyl-6-(1-methyl-1H-indazol-5-ylamino)-1,2-dihydro-3H-1,2,5,7-tetraazainden-3-one], the pEC50 is 6.30 to 7.00 in test [1] (setting [5]), 6.30 to 7.00 with ACHN cells and less than 6.00 in test [2] (setting [6]). The pIC50 in test [3] (setting [7]) was more than 8.00; in test [4] (setting [8]), more than 7.70.

For `C=CCn1c(=O)c2cnc(Nc3ccc4c(cnn4C)c3)nc2n1-c1cccc(O[C@H]2CCCNC2)n1` [Compound 104, 1-{6-[(S)-3-piperidyloxy]-2-pyridyl}-2-allyl-6-(1-methyl-1H-indazol-5-ylamino)-1,2-dihydro-3H-1,2,5,7-tetraazainden-3-one], the pEC50 in test [1] (setting [5]) was more than 7.00; in the test with ACHN cells, not below 7.00; in test [2] (setting [6]) it was 6.30 to 6.70. Also, the values for the pIC50 in test [3] (setting [7]) and in test [4] (setting [8]) were more than 8.00 and more than 7.70, respectively.

As for `C=CCn1c(=O)c2cnc(Nc3ccc4c(cnn4C)c3)nc2n1-c1cccc(O[C@H]2CCN(C)C2)n1` [Compound 105, 1-{6-[(S)-1-methyl-3-pyrrolidinyloxy]-2-pyridyl}-2-allyl-6-(1-methyl-1H-indazol-5-ylamino)-1,2-dihydro-3H-1,2,5,7-tetraazainden-3-one], the pEC50 in test [1] (setting [5]) is more than 7.00; with ACHN cells, not below 7.00; in test [2] (setting [6]), 6.00 to 6.30. Also, the pIC50 in test [3] (setting [7]) is more than 8.00; in test [4] (setting [8]), 7.00 to 7.70.

For `C=CCn1c(=O)c2cnc(Nc3ccc(Cl)cc3)nc2n1-c1cccc(NC2CCN(C)CC2)n1` [Compound 138, 2-allyl-6-((4-chlorophenyl)amino)-1-(6-((1-methylpiperidin-4-yl)amino)pyridin-2-yl)-1,2-dihydro-3H-pyrazolo[3,4-d]pyrimidin-3-one], the pEC50 in test [1] (setting [5]) was more than 7.00; in the test with ACHN cells, not below 7.00; in test [2] (setting [6]), less than 6.00. The values for the pIC50 in test [3] (setting [7]) and in test [4] (setting [8]) were more than 8.00 and 6.30 to 7.00, respectively.

For `C=CCn1c(=O)c2cnc(Nc3ccc(Cl)cc3)nc2n1-c1cccc(OC2CCNCC2)n1` [Compound 141, 2-allyl-6-((4-chlorophenyl)amino)-1-(6-(piperidin-4-yloxy)pyridin-2-yl)-1,2-dihydro-3H-pyrazolo[3,4-d]pyrimidin-3-one], the pEC50 was more than 7.00 in test [1] (setting [5]), 6.30 to 7.00 in the test with ACHN cells and 6.30 to 6.70 in test [2] (setting [6]). Besides, the pIC50 is more than 8.00 in test [3] (setting [7]) and more than 7.70 in test [4] (setting [8]).

Consider `C=CCn1c(=O)c2cnc(Nc3ccc(Cl)cc3)nc2n1-c1cccc(O[C@H]2CCNC2)n1` [Compound 145, 1-{6-[(S)-3-pyrrolidinyloxy]-2-pyridyl}-2-allyl-6-(p-chlorophenylamino)-1,2-dihydro-3H-1,2,5,7-tetraazainden-3-one], for which the pEC50 is 6.30 to 7.00 in test [1] (setting [5]), 6.30 to 7.00 in the test with ACHN cells and 6.30 to 6.70 in test [2] (setting [6]). In addition, the pIC50 is more than 8.00 in test [3] (setting [7]) and 7.00 to 7.70 in test [4] (setting [8]).

For the molecule `C=CCn1c(=O)c2cnc(Nc3cnn(C)c3)nc2n1-c1cccc(O[C@H]2C[C@H]3CC[C@@H](C2)N3C)n1` [Compound 190, 6-[(1-methyl-1H-pyrazol-4-yl)amino]-1-(6-{[(trans)-8-methyl-8-azabicyclo[3.2.1]octan-3-yl]oxy}pyridin-2-yl)-2-(prop-2-en-1-yl)-1H,2H,3H-pyrazolo[3,4-d]pyrimidin-3-one], the pEC50 is 6.30 to 7.00 in test [1] (read-out: CDK1 Tyr15 Phosphorylation EC50, 4 h treatment, nuclear positivity for pCdk1 Y15 vs DMSO control); 6.30 to 7.00 in the test with ACHN cells; 6.00 to 6.30 in test [2] (read-out: CDK1 Thr14 Phosphorylation EC50, 4 h treatment). Moreover, the pIC50 in test [3] is more than 8.00; in test [4] (Myt1 kinase Binding IC50, 3 nM tracer 178, 2.5 nM PMYT-1, 1 nM Eu-labeled antibody) it was more than 7.70.

`C=CCn1c(=O)c2cnc(Nc3ccc4c(c3)OCO4)nc2n1-c1cccc(NC2CCN(C)CC2)n1` [Compound 196, 2-allyl-6-(2H-1,3-benzodioxol-5-ylamino)-1-[6-(1-methyl-4-piperidylamino)-2-pyridyl]-1,2-dihydro-3H-1,2,5,7-tetraazainden-3-one]: the pEC50 is more than 7.00 in test [1] (setting [5]), not below 7.00 with ACHN cells and less than 6.00 in test [2] (setting [6]). Also, the figures for the pIC50 in test [3] (setting [7]) and in test [4] (setting [8]) were more than 8.00 and 6.30 to 7.00, respectively.

On to `C=CCn1c(=O)c2cnc(Nc3cnn(C(C)C)c3)nc2n1-c1cccc(OC2CCN(C)CC2)n1` [Compound 198, 2-allyl-6-(1-isopropyl-4-pyrazolylamino)-1-[6-(1-methyl-4-piperidyloxy)-2-pyridyl]-1,2-dihydro-3H-1,2,5,7-tetraazainden-3-one], for which the pEC50 in test [1] (setting [5]) is more than 7.00; in the test on ACHN cells it was not below 7.00; in test [2] (setting [6]), less than 6.00. In addition, the pIC50 in test [3] (setting [7]) was more than 8.00; in test [4] (setting [8]), 6.30 to 7.00.

As to `C=CCn1c(=O)c2cnc(Nc3cnn(CC(C)C)c3)nc2n1-c1cccc(OC2CCN(C)CC2)n1` [Compound 200, 2-allyl-6-(1-isobutyl-4-pyrazolylamino)-1-[6-(1-methyl-4-piperidyloxy)-2-pyridyl]-1,2-dihydro-3H-1,2,5,7-tetraazainden-3-one], the pEC50 is more than 7.00 in test [1] (setting [5]), not below 7.00 in the test on ACHN cells and less than 6.00 in test [2] (setting [6]). The pIC50 was more than 8.00 in test [3] (setting [7]) and 6.30 to 7.00 in test [4] (setting [8]).

As to `C=CCn1c(=O)c2cnc(Nc3ccc(C#N)c(C)c3)nc2n1-c1cccc(OC2CCN(C)CC2)n1` [Compound 204, 2-methyl-4-[(1-{6-[(1-methylpiperidin-4-yl)oxy]pyridin-2-yl}-3-oxo-2-(prop-2-en-1-yl)-1H,2H,3H-pyrazolo[3,4-d]pyrimidin-6-yl)amino]benzonitrile], the values for the pEC50 (in test [1] (setting [5]); in the test with ACHN cells; in test [2] (setting [6])) were more than 7.00, not below 7.00 and less than 6.00, respectively. The pIC50 in test [3] (setting [7]) was more than 8.00; in test [4] (setting [8]), 7.00 to 7.70.

For `C=CCn1c(=O)c2cnc(Nc3ccc4nsnc4c3)nc2n1-c1cccc(OC2CCN(C)CC2)n1` [Compound 208, 2-allyl-6-(2,1,3-benzothiadiazol-5-ylamino)-1-[6-(1-methyl-4-piperidyloxy)-2-pyridyl]-1,2-dihydro-3H-1,2,5,7-tetraazainden-3-one], the pEC50 in test [1] (setting [5]) was more than 7.00; with ACHN cells, not below 7.00; in test [2] (setting [6]) it was 6.30 to 6.70. Further, the values for the pIC50 in test [3] (setting [7]) and in test [4] (setting [8]) were more than 8.00 and more than 7.70, respectively.
